# Assay results: the NIST ThermoML archive (doi:10.1021/je034189g)
# Numbers after ± are expanded uncertainties.
# Conditions: Liquid; Ebulliometric method (Recirculating still)
row,Normal boiling temperature,SMILES
1,153.62 ± 0.15 °C,COc1ccccc1 [anisole]
2,80.01 ± 0.15 °C,c1ccccc1 [benzene]
3,80.63 ± 0.15 °C,C1CCCCC1 [cyclohexane]
4,137.63 ± 0.15 °C,CCCCCO [pentan-1-ol]
